Assays:
[1] = biological target: T1, IDO1 enzyme in Hela cells (Homo sapiens, UniProt P14902); assay: hIDO1 cytological activity assay (kynurenine in Hela cells by LC-MS); format: cell-based; details: IDO1 induced with 100 ng/mL recombinant human γ-interferon, 20 h, read-out: hIDO1 Cytological active IC50
T1 construct: recombinant human γ-interferon was added to a final concentration of 100 ng/mL to induce IDO1 expression; endogenous in cells; host or cells: Hela cells
Description: Experimental Example 2: hIDO1 Cytological Activity Assay
The change of kynurenine in Hela cells was detected by the LC-MS method, and the IC50 value of the compound was used as an index to evaluate the inhibitory effect of the compound of formula I on IDO1 enzyme.
The culture medium, trypsin and DPBS were preheated in a 37° C. water bath. The culture medium for cell culture was sucked out and washed with 10 mL of DPBS; the preheated trypsin was added into the culture flask, and the flask was rotated to allow the trypsin to uniformly cover it, and then placed in a 37° C., 5% CO2 incubator to digest for 1-2 min; in each T150, cells were dispersed with 10-15 mL of the culture medium, centrifuged at 800 rpm for 5 min, and then resuspended with 10 mL of medium; 1 mL of cell suspension was pipetted and cells were counted with Vi-cell; Hela cells were diluted with the culture medium to 5×10^5/mL, 80 μL of the solution was added to a 96-cell plate, and cultured at 37° C. for 5-6 h in a 5% CO2 incubator.
The compound was diluted to 1 mM with DMSO, and then diluted 3-fold in duplicate wells, with 9 gradients. […]
10 μL of recombinant human γ-interferon was added to a final concentration of 100 ng/mL to induce IDO1 expression. […] The content of kynurenine was detected by LC-MS. […]

[2] = biological target: T2, recombinant human IDO1 enzyme (Homo sapiens, UniProt P14902); assay: In vitro hIDO1 enzyme activity test (NFK Green fluorescence); format: biochemical; details: recombinant human IDO1, L-tryptophan substrate, pH 6.5, NFK Green readout
T2 construct: purchased NTRC NTRC-hIDO-10K
Description: Experimental Example 1: In Vitro hIDO1 Enzyme Activity Test
The change of NFK production was detected by using the NFK Green™ fluorescent molecule, which is the metabolite of the IDO1 enzyme, and the IC50 value of the compound was used as an index, to evaluate the inhibitory effect of the compound of formula I on the recombinant human IDO1 enzyme.
The compound of formula I was diluted to 1 mM with DMSO, and then diluted 3-fold in duplicate wells, with 10 gradients. 48 μL of 50 mM phosphate buffer (pH 6.5) was transferred and added to the compound plate via Bravo automated liquid handling platform. 2 μL of the diluted solution of the compound in DMSO was then added thereto and mixed, followed by transferring 10 μL thereof to an enzyme reaction plate.
The IDO1 enzyme was diluted to 20 nM in the reaction buffer (50 mM phosphate buffer (pH 6.5), 0.1% Tween-20, 2% glycerol, 20 mM ascorbic acid, 20 μg/mL catalase and 20 μM methylene blue), 20 μL of which was transferred to an enzyme reaction plate and incubated at 23° C. for 30 min. The reaction was started by adding 10 μL of 400 μM L-tryptophan substrate and incubated at 23° C. for 90 min. 10 μL of NFK Green™ fluorescent dye was added thereto, and the plate was sealed with the microplate sealing film, incubated at 37° C. for 4 h, and then read on Envision Multimode Microplate Reader (Ex 400 nm/Em 510 nm). […]

T1 sequence (P14902 whole entry): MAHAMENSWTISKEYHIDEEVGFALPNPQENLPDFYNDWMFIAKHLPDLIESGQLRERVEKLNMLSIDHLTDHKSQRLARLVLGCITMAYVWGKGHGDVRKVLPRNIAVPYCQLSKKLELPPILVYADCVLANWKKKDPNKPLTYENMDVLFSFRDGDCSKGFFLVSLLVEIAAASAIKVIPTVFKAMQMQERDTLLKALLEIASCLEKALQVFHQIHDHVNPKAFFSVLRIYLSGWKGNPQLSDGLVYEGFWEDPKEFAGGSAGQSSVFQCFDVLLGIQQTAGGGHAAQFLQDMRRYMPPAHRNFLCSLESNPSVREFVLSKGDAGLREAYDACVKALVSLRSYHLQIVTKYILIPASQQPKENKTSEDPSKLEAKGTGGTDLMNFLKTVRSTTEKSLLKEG
T2 sequence (P14902 whole entry): as above

- IC50 [1]: 74.9 nM
- IC50 [2]: 48 nM
Structure (SMILES): FC1(F)CCC([C@H]2c3sccc3-c3cncn32)CC1 [Compound of formula I, (S)-8-(4,4-difluorocyclohexyl)-8H-thieno[3,4]pyrrolo[1,5-a]imidazole]

From patent US11236107B2, “Crystal of tricyclic compound” (Chia Tai Tianqing Pharmaceutical Group Co., Ltd., priority 2017, dated 2022)
